Molecular target: T1, BACE1 (Homo sapiens, UniProt P56817)
T1 construct: Human HEK293 cells which are stably transfected with a vector expressing a cDNA of the human APP wt gene (APP695); endogenous in cells; host or cells: HEK293 stably transfected with human APP695 wt
Assay: Cellular Aβ-lowering assay (Aβ40 ELISA)
Assay type: cell-based
Details: HEK293 cells stably expressing human APP wt (APP695); Aβ40 in supernatant after 18-20 hrs; read-out: BACE1 cell act. Aβ40 IC50
Experimental: Cellular Aβ-Lowering Assay:
Human HEK293 cells which are stably transfected with a vector expressing a cDNA of the human APP wt gene (APP695) were used to assess the potency of the compounds in a cellular assay. The cells were seeded in 96-well microtiter plates in cell culture medium (Iscove, plus 10% (v/v) fetal bovine serum, glutamine, penicillin/streptomycin) to about 80% confluence and the compounds were added at a 10× concentration in 1/10 volume of medium without FCS containing 8% DMSO (final concentration of DMSO was kept at 0.8% v/v). After 18-20 hrs incubation at 37° C. and 5% CO2 in a humidified incubator the culture supernatant was harvested for the determination of Aβ40 concentrations. 96 well ELISA plates (e.g., Nunc MaxiSorb) were coated with monoclonal antibody which specifically recognize the C-terminal end of Aβ40 (Brockhaus et al., NeuroReport 9, 1481-1486; 1998). After blocking of non-specific binding sites with e.g. 1% BSA and washing, the culture supernatants were added in suitable dilutions together with a horseradish peroxidase-coupled Aβ detection antibody (e.g., antibody 4G8, Senetek, Maryland Heights, Mo.) and incubated for 5 to 7 hrs. Subsequently the wells of the microtiter plate were washed extensively with Tris-buffered saline containing 0.05% Tween 20 and the assay was developed with tetramethylbenzidine/H2O2 in citric acid buffer. After stopping the reaction with one volume 1 N H2SO4 the reaction was measured in an ELISA reader at 450 nm wavelength. The concentrations of Aβ in the culture supernatants were calculated from a standard curve obtained with known amounts of pure Aβ peptide.

T1 sequence (P56817 46-501): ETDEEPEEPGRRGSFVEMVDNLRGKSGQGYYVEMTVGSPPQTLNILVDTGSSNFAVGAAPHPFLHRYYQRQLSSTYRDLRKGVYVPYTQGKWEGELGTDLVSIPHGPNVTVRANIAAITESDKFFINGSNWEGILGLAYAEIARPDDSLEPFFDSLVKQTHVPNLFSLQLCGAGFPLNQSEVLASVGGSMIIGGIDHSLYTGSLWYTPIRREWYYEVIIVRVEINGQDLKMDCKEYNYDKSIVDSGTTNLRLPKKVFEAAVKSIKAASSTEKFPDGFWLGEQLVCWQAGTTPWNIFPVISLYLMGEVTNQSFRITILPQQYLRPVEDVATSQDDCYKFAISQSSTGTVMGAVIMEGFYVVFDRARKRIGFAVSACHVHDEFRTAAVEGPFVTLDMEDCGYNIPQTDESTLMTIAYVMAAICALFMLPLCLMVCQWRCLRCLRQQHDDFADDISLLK

| IC50 [nM] | Compound |
| --- | --- |
| 16 | NC1=N[C@](CF)(c2cc(NC(=O)c3cnc(C(F)(F)F)cn3)ccc2F)[C@H]2CC(F)(F)C[C@H]2O1 [Example 28, 5-Trifluoromethyl-pyrazine-2-carboxylic acid [(S)-3-((1R,2R)-2-amino-6,6-difluoro-4-fluoromethyl-4,4a,5,6,7,7a-hexahydro-cyclopenta[e][1,3]oxazin-4-yl)-4-fluoro-phenyl]-amide] |
| 36 | CC(F)(F)c1cnc(C(=O)Nc2ccc(F)c([C@@]3(CF)N=C(N)O[C@@H]4CC(F)(F)C[C@@H]43)c2)cn1 [Example 29, 5-(1,1-Difluoro-ethyl)-pyrazine-2-carboxylic acid [(S)-3-((1R,2R)-2-amino-6,6-difluoro-4-fluoromethyl-4,4a,5,6,7,7a-hexahydro-cyclopenta[e][1,3]oxazin-4-yl)-4-fluoro-phenyl]-amide] |
| 7.6 | COc1cnc(C(=O)Nc2ccc(F)c([C@@]3(CF)N=C(N)O[C@@H]4CC(F)(F)C[C@@H]43)c2)cn1 [Example 30, 5-Methoxy-pyrazine-2-carboxylic acid [(S)-3-((1R,2R)-2-amino-6,6-difluoro-4-fluoromethyl-4,4a,5,6,7,7a-hexahydro-cyclopenta[e][1,3]oxazin-4-yl)-4-fluoro-phenyl]-amide] |
| 36 | NC1=N[C@](CF)(c2cc(NC(=O)c3ncc(C(F)(F)F)cn3)ccc2F)[C@H]2CC(F)(F)C[C@H]2O1 [Example 31, 5-Trifluoromethyl-pyrimidine-2-carboxylic acid [(S)-3-((1R,2R)-2-amino-6,6-difluoro-4-fluoromethyl-4,4a,5,6,7,7a-hexahydro-cyclopenta[e][1,3]oxazin-4-yl)-4-fluoro-phenyl]-amide] |
| 7.9 | NC1=N[C@](CF)(c2cc(NC(=O)c3ncc(Cl)cn3)ccc2F)[C@H]2CC(F)(F)C[C@H]2O1 [Example 32, 5-Chloro-pyrimidine-2-carboxylic acid [(S)-3-((1R,2R)-2-amino-6,6-difluoro-4-fluoromethyl-4,4a,5,6,7,7a-hexahydro-cyclopenta[e][1,3]oxazin-4-yl)-4-fluoro-phenyl]-amide] |
| 4.8 | Cc1nc(C(=O)Nc2ccc(F)c([C@@]3(CF)N=C(N)O[C@@H]4CC(F)(F)C[C@@H]43)c2)co1 [Example 33, 2-Methyl-oxazole-4-carboxylic acid [(S)-3-((1R,2R)-2-amino-6,6-difluoro-4-fluoromethyl-4,4a,5,6,7,7a-hexahydro-cyclopenta[e][1,3]oxazin-4-yl)-4-fluoro-phenyl]-amide] |
| 3 | NC1=N[C@](CF)(c2cc(NC(=O)c3nn(C(F)F)cc3Cl)ccc2F)[C@H]2CC(F)(F)C[C@H]2O1 [Example 35, 4-Chloro-1-difluoromethyl-1H-pyrazole-3-carboxylic acid [(S)-3-((1R,2R)-2-amino-6,6-difluoro-4-fluoromethyl-4,4a,5,6,7,7a-hexahydro-cyclopenta[e][1,3]oxazin-4-yl)-4-fluoro-phenyl]-amide] |
| 17 | NC1=N[C@@](c2cc(NC(=O)c3ccc(Cl)cn3)ccc2F)(C(F)F)[C@H]2CC(F)(F)C[C@H]2O1 [Example 37, 5-Chloro-pyridine-2-carboxylic acid [(S)-3-((1R,2R)-2-amino-4-difluoromethyl-6,6-difluoro-4,4a,5,6,7,7a-hexahydro-cyclopenta[e][1,3]oxazin-4-yl)-4-fluoro-phenyl]-amide] |
| 17 | NC1=N[C@@](c2cc(NC(=O)c3cnc(OCF)cn3)ccc2F)(C(F)F)[C@H]2CC(F)(F)C[C@H]2O1 [Example 38, 5-Fluoromethoxy-pyrazine-2-carboxylic acid [(S)-3-((1R,2R)-2-amino-4-difluoromethyl-6,6-difluoro-4,4a,5,6,7,7a-hexahydro-cyclopenta[e][1,3]oxazin-4-yl)-4-fluoro-phenyl]-amide] |
| 1400 | NC1=N[C@@](c2cc(NC(=O)c3cnc(Cl)cn3)ccc2F)(C(F)F)[C@H]2CC(F)(F)C[C@H]2O1 [Example 39, 5-Chloro-pyrazine-2-carboxylic acid [(S)-3-((1R,2R)-2-amino-4-difluoromethyl-6,6-difluoro-4,4a,5,6,7,7a-hexahydro-cyclopenta[e][1,3]oxazin-4-yl)-4-fluoro-phenyl]-amide] |
| 44 | NC1=N[C@@](c2cc(NC(=O)c3cnc(C(F)F)cn3)ccc2F)(C(F)F)[C@H]2CC(F)(F)C[C@H]2O1 [Example 40, 5-Difluoromethyl-pyrazine-2-carboxylic acid [(S)-3-((1R,2R)-2-amino-4-difluoromethyl-6,6-difluoro-4,4a,5,6,7,7a-hexahydro-cyclopenta[e][1,3]oxazin-4-yl)-4-fluoro-phenyl]-amide] |
| 7 | NC1=N[C@@](c2cc(NC(=O)c3cnc(OC(F)F)cn3)ccc2F)(C(F)F)[C@H]2CC(F)(F)C[C@H]2O1 [Example 41, 5-Difluoromethoxy-pyrazine-2-carboxylic acid [(S)-3-((1R,2R)-2-amino-4-difluoromethyl-6,6-difluoro-4,4a,5,6,7,7a-hexahydro-cyclopenta[e][1,3]oxazin-4-yl)-4-fluoro-phenyl]-amide] |
| 5.5 | NC1=N[C@@](c2cc(NC(=O)c3nn(C(F)F)cc3Cl)ccc2F)(C(F)F)[C@H]2CC(F)(F)C[C@H]2O1 [Example 43, 4-Chloro-1-difluoromethyl-1H-pyrazole-3-carboxylic acid [(S)-3-((1R,2R)-2-amino-4-difluoromethyl-6,6-difluoro-4,4a,5,6,7,7a-hexahydro-cyclopenta[e][1,3]oxazin-4-yl)-4-fluoro-phenyl]-amide] |
| 42 | Cc1nc(C(=O)Nc2ccc(F)c([C@@]3(C(F)F)N=C(N)O[C@@H]4CC(F)(F)C[C@@H]43)c2)co1 [Example 44, 2-Methyl-oxazole-4-carboxylic acid [(S)-3-((1R,2R)-2-amino-4-difluoromethyl-6,6-difluoro-4,4a,5,6,7,7a-hexahydro-cyclopenta[e][1,3]oxazin-4-yl)-4-fluoro-phenyl]-amide] |
| 11100 | N#Cc1ccc(C(=O)Nc2ccc(F)c([C@]3(CF)N=C(N)O[C@@]4(CF)CC(F)(F)C[C@H]43)c2)nc1 [Example 45, 5-Cyano-pyridine-2-carboxylic acid [3-((1S,7aS)-2-(R)-amino-6,6-difluoro-4,7a-bis-fluoromethyl-4,4a,5,6,7,7a-hexahydro-cyclopenta[e][1,3]oxazin-4-yl)-4-fluoro-phenyl]-amide] |
| 27 | N#Cc1ccc(C(=O)Nc2ccc(F)c([C@@]3(CF)N=C(N)O[C@]4(CF)CC(F)(F)C[C@@H]43)c2)nc1 [Example 46, 5-Cyano-pyridine-2-carboxylic acid [3-((1R,7aR)-2-(S)-amino-6,6-difluoro-4,7a-bis-fluoromethyl-4,4a,5,6,7,7a-hexahydro-cyclopenta[e][1,3]oxazin-4-yl)-4-fluoro-phenyl]-amide] |
| 85 | NC1=N[C@](CF)(c2cc(NC(=O)c3ccc(Cl)cn3)ccc2F)[C@H]2CC(F)(F)C[C@@]2(CF)O1 [Example 47, 5-Chloro-pyridine-2-carboxylic acid [3-((1R,7aR)-2-(S)-amino-6,6-difluoro-4,7a-bis-fluoromethyl-4,4a,5,6,7,7a-hexahydro-cyclopenta[e][1,3]oxazin-4-yl)-4-fluoro-phenyl]-amide] |

From patent publication US8476264B2, “N-(3-(2-amino-6,6-difluoro-4,4A,5,6,7,7A-hexahydro-cyclopenta[E][1,3]oxazin-4-yl)-phenylamides as BACE1 inhibitors” (Hoffmann-La Roche Inc., priority 2011, dated 2013)
